pEC50, pKi: −log10 of the molar value.
Experiments:
5HT2B receptors = target: T1, 5HT2B receptors (Homo sapiens, UniProt P41595); assay: Human 5-HT2B functional high throughput screening assay in CHO-K1 cells (calcium flux); type: cell-based
T1 construct: expressed in transfected cells; host or cells: CHO-K1 cells
Method in brief: (§1)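 Serum-starved CHO-K1 cells carrying the receptor; Ca4 dye, 60 min RT. Test compound added after a 10 s baseline, fluorescence followed for 3 min. EC50 from 4-parameter fit; Emax given as % of serotonin effect.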

5HT2C receptors [1] = target: T2, 5HT2C receptors (Homo sapiens, UniProt P28335); assay: Human 5-HT2C functional assay in 1321N1 cells (intracellular calcium, FLIPR); type: cell-based; set-up: expressed in transfected cells; host or cells: 1321N1 cells; conditions: 5-HT2c agonist activity, maximum calcium response
T2 sequence (P28335 33-458): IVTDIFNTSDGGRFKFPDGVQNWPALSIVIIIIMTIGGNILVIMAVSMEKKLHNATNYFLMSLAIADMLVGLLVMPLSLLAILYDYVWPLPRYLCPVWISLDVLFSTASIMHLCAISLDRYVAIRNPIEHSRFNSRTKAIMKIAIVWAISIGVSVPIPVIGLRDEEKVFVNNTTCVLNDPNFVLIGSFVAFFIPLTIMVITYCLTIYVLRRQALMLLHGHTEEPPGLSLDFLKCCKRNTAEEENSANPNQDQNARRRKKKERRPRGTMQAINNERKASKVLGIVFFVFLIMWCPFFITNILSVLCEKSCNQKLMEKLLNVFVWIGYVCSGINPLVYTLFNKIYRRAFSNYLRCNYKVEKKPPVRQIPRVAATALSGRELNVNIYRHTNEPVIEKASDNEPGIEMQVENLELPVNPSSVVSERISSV
Protocol: (ii) Human 5-HT2C Functional Assay in 1321N1 Cells
Functional activity was determined by testing the effect of the compounds on intracellular calcium levels in 1321N1 cells stably transfected with the human 5-HT2C receptor. Cells were seeded into 96-well plates at 50,000 cells/well and grown overnight in tissue culture medium (DMEM with Glutamax I (Invitrogen), containing 10% dFCS, 50 μg/mL Gentamicin, 400 μg/mL Geneticin) at 37° C. and 7% CO2. Growth medium was replaced by medium without dFCS for overnight incubation. Cells were loaded with a fluorescent calcium-sensitive dye in the presence of 1% probenicid according to the manufacturer's protocol (Fluo4 AM, Molecular Devices). Serial compound dilutions (final concentrations 10^−10 to 10^−5 M) were added to the cells either alone or in the presence of serotonin (10^−9 M) and the maximum calcium response was determined using a FLIPR instrument (Molecular Devices). Concentration-response curves were fitted using a four-parameter logistic equation (GraphPad Prism). The concentration at which the compound exerts half its maximal effect is named the ‘effective concentration 50’ or ‘EC50’ and is listed in Table 2.

5HT2C receptors [2] = target: T2, 5HT2C receptors; assay: Human 5-HT2C functional high throughput screening assay in CHO-K1 cells (calcium flux); type: cell-based; set-up: expressed in transfected cells; host or cells: CHO-K1 cells
Method in brief: as §1

[3] = target: T3, human serotonin 5-HT2c receptor (Homo sapiens, UniProt P28335); assay: Human 5-HT2C receptor radioligand binding assay (agonist site, [125I]DOI); conditions: 5-HT2c agonist site; transfected CHO cell membranes; 0.2 nM [125I](±)DOI
T3 construct: expressed in transfected cells; host or cells: CHO cells (membrane homogenates)
T3 sequence (P28335 33-458): T2 sequence (P28335 33-458)
Protocol: (i) Human 5-HT2C Receptor Radioligand Binding Assay
Affinity of compounds for the agonist site of the […], receptor in transfected CHO cells was determined in a radioligand binding assay essentially as described by Bryant, H. U., et al., Life Sciences (1996) 59(15), 1259-1268.

T1 sequence (P41595 whole entry): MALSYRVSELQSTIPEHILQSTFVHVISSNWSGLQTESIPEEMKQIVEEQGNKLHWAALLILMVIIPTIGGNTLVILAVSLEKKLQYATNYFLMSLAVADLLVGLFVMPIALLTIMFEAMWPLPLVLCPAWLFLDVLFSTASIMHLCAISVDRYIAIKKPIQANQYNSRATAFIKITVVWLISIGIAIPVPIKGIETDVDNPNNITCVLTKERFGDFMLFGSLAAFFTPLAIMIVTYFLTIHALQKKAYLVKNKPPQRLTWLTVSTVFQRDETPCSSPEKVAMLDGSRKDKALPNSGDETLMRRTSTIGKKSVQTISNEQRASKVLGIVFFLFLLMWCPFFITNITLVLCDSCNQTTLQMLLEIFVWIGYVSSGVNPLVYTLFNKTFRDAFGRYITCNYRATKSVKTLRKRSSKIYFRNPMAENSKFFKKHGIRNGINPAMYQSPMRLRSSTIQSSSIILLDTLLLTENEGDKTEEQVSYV

O=C1NC[C@@H]2CN(Cc3ccccc3)C[C@H]2c2ccccc21 (racemic) [Example 1, Trans-2-benzyl-1,2,3,3a,4,5-hexahydrobenzo[c]pyrrolo[3,4-e]azepin-6(10bH)-one]
pEC50 (5HT2B receptors; 5-HT2B agonist activity, CHO-K1 cells, calcium flux, read-out: EC50): < 5.00 | Emax (5HT2B receptors; 5-HT2B, maximum functional response as percentage relative to the effect of serotonin): inactive | pEC50 (5HT2C receptors [1]): 7.95 | pEC50 (5HT2C receptors [2]; 5-HT2C agonist activity, CHO-K1 cells, calcium flux, read-out: EC50): 7.70 | Emax (5HT2C receptors [2]; CHO-K1, 5-HT2C, maximum functional response as percentage relative to the effect of serotonin, read-out: Emax): > 120%

O=C1NC[C@@H]2CNC[C@H]2c2ccccc21 (relative stereo) [Example 2, Trans-1,2,3,3a,4,5-hexahydrobenzo[c]pyrrolo[3,4-e]azepin-6(10bH)-one]
pKi [3]: 7.66

Cc1ccc(C)c(CN2C[C@H]3CNC(=O)c4ccccc4[C@@H]3C2)c1 (relative stereo) [Example 23, Trans-2-(2,5-dimethylbenzyl)-1,2,3,3a,4,5-hexahydrobenzo[c]pyrrolo[3,4-e]azepin-6(10bH)-one]
pEC50 (5HT2C receptors [1]): 8.05

Cc1ccc(CN2C[C@H]3CNC(=O)c4ccccc4[C@@H]3C2)c(C)c1 (relative stereo) [Example 24, Trans-2-(2,4-dimethylbenzyl)-1,2,3,3a,4,5-hexahydrobenzo[c]pyrrolo[3,4-e]azepin-6(10bH)-one]
pEC50 (5HT2C receptors [1]): 7.34

Cc1ccc(CN2C[C@H]3CNC(=O)c4ccccc4[C@@H]3C2)cc1C (relative stereo) [Example 25, Trans-2-(3,4-dimethylbenzyl)-1,2,3,3a,4,5-hexahydrobenzo[c]pyrrolo[3,4-e]azepin-6(10bH)-one]
pEC50 (5HT2C receptors [1]): 7.40

Cc1cccc(CN2C[C@H]3CNC(=O)c4ccccc4[C@@H]3C2)c1 (relative stereo) [Example 26, Trans-2-(3-methylbenzyl)-1,2,3,3a,4,5-hexahydrobenzo[c]pyrrolo[3,4-e]azepin-6(10bH)-one]
pEC50 (5HT2C receptors [1]): 7.99

Cc1cccc(CN2C[C@H]3CNC(=O)c4ccccc4[C@@H]3C2)c1C (relative stereo) [Example 27, Trans-2-(2,3-dimethylbenzyl)-1,2,3,3a,4,5-hexahydrobenzo[c]pyrrolo[3,4-e]azepin-6(10bH)-one]
pKi [3]: 6.68 | pEC50 (5HT2C receptors [1]): 6.58

COc1ccccc1CN1C[C@H]2CNC(=O)c3ccccc3[C@@H]2C1 (relative stereo) [Example 29, Trans-2-(2-methoxybenzyl)-1,2,3,3a,4,5-hexahydrobenzo[c]pyrrolo[3,4-e]azepin-6(10bH)-one]
pKi [3]: 7.15 | pEC50 (5HT2C receptors [1]): 7.57

O=C1NC[C@@H]2CN(Cc3cc(Cl)cc(Cl)c3)C[C@H]2c2ccccc21 (relative stereo) [Example 30, Trans-2-(3,5-dichlorobenzyl)-1,2,3,3a,4,5-hexahydrobenzo[c]pyrrolo[3,4-e]azepin-6(10bH)-one]
pKi [3]: 8.47 | pEC50 (5HT2C receptors [1]): 8.68

O=C1NC[C@@H]2CN(Cc3cc(Cl)ccc3Cl)C[C@H]2c2ccccc21 (relative stereo) [Example 31, Trans-2-(2,5-dichlorobenzyl)-1,2,3,3a,4,5-hexahydrobenzo[c]pyrrolo[3,4-e]azepin-6(10bH)-one]
pEC50 (5HT2C receptors [1]): 8.39

O=C1NC[C@@H]2CN(Cc3cccc(Cl)c3)C[C@H]2c2ccccc21 (relative stereo) [Example 32, Trans-2-(3-chlorobenzyl)-1,2,3,3a,4,5-hexahydrobenzo[c]pyrrolo[3,4-e]azepin-6(10bH)-one]
pEC50 (5HT2C receptors [1]): 7.71

O=C1NC[C@@H]2CN(Cc3ccccc3Cl)C[C@H]2c2ccccc21 (relative stereo) [Example 33, Trans-2-(2-chlorobenzyl)-1,2,3,3a,4,5-hexahydrobenzo[c]pyrrolo[3,4-e]azepin-6(10bH)-one]
pEC50 (5HT2C receptors [1]): 7.48

O=C1NC[C@@H]2CN(Cc3cccc(F)c3)C[C@H]2c2ccccc21 (relative stereo) [Example 34, Trans-2-(3-fluorobenzyl)-1,2,3,3a,4,5-hexahydrobenzo[c]pyrrolo[3,4-e]azepin-6(10bH)-one]
pEC50 (5HT2C receptors [1]): 7.92

O=C1NC[C@@H]2CN(Cc3ccccc3F)C[C@H]2c2ccccc21 (relative stereo) [Example 35, Trans-2-(2-fluorobenzyl)-1,2,3,3a,4,5-hexahydrobenzo[c]pyrrolo[3,4-e]azepin-6(10bH)-one]
pEC50 (5HT2C receptors [1]): 7.91

N#Cc1cccc(CN2C[C@H]3CNC(=O)c4ccccc4[C@@H]3C2)c1 (relative stereo) [Example 36, 3-((Trans-6-oxo-1,3a,4,5,6,10b-hexahydrobenzo[c]pyrrolo[3,4-e]azepin-2(3H)-yl)methyl)benzonitrile]
pEC50 (5HT2C receptors [1]): 7.11

COc1cc(CN2C[C@H]3CNC(=O)c4ccccc4[C@@H]3C2)cc(OC)c1 (relative stereo) [Example 38, Trans-2-(3,5-dimethoxybenzyl)-1,2,3,3a,4,5-hexahydrobenzo[c]pyrrolo[3,4-e]azepin-6(10bH)-one]
pKi [3]: 8.07 | pEC50 (5HT2C receptors [1]): 8.20

O=C1NC[C@@H]2CN(Cc3cc(Cl)cc(Cl)c3)C[C@@H]2c2ccccc21 (relative stereo) [Example 40, Cis-2-(3,5-dichlorobenzyl)-1,2,3,3a,4,5-hexahydrobenzo[c]pyrrolo[3,4-e]azepin-6(10bH)-one]
pEC50 (5HT2C receptors [1]): 7.95

O=C1NC[C@@H]2CN(Cc3cccc(Cl)c3)C[C@@H]2c2ccccc21 (relative stereo) [Example 41, Cis-2-(3-chlorobenzyl)-1,2,3,3a,4,5-hexahydrobenzo[c]pyrrolo[3,4-e]azepin-6(10bH)-one]
pEC50 (5HT2C receptors [1]): 8.31

O=C1NC[C@@H]2CN(Cc3cccc(F)c3)C[C@@H]2c2ccccc21 (relative stereo) [Example 42, Cis-2-(3-fluorobenzyl)-1,2,3,3a,4,5-hexahydrobenzo[c]pyrrolo[3,4-e]azepin-6(10bH)-one]
pEC50 (5HT2C receptors [1]): 7.74

O=C1NC[C@@H]2CN(Cc3cccc4ccccc34)C[C@@H]2c2ccccc21 (relative stereo) [Example 43, Cis-2-(naphthalen-1-ylmethyl)-1,2,3,3a,4,5-hexahydrobenzo[e]pyrrolo[3,4-e]azepin-6(10bH)-one]
pEC50 (5HT2C receptors [1]): 7.09

O=C1NC[C@@H]2CN(Cc3ccccc3)C[C@H]2c2ccc(Cl)cc21 (relative stereo) [Example 45, Trans-2-benzyl-8-chloro-1,2,3,3a,4,5-hexahydrobenzo[c]pyrrolo[3,4-e]azepin-6(10bH)-one]
pKi [3]: 8.16 | pEC50 (5HT2C receptors [1]): 8.23

O=C1NC[C@@H]2CNC[C@H]2c2ccc(Cl)cc21 (relative stereo) [Example 46, Trans-8-chloro-1,2,3,3a,4,5-hexahydrobenzo[e]pyrrolo[3,4-c]azepin-6(10bH)-one]
pKi [3]: 7.96 | pEC50 (5HT2C receptors [1]): 8.94

O=C1NC[C@@H]2CN(Cc3ccccc3)C[C@H]2c2c(Cl)cccc21 (relative stereo) [Example 48, Trans-2-benzyl-10-chloro-1,2,3,3a,4,5-hexahydrobenzo[e]pyrrolo[3,4-c]azepin-6(10bH)-one]
pKi [3]: 7.66 | pEC50 (5HT2C receptors [1]): 7.85

O=C1NC[C@@H]2CNC[C@H]2c2c(Cl)cccc21 (relative stereo) [Example 49]
pKi [3]: 6.77 | pEC50 (5HT2C receptors [1]): 7.32

O=C1NC[C@@H]2CN(Cc3ccccc3)C[C@H]2c2cc(Cl)ccc21 (relative stereo) [Example 51, Trans-2-benzyl-9-chloro-1,2,3,3a,4,5-hexahydrobenzo[e]pyrrolo[3,4-c]azepin-6(10bH)-one]
pKi [3]: 6.96 | pEC50 (5HT2C receptors [1]): 7.08

O=C1NC[C@@H]2CNC[C@H]2c2cc(Cl)ccc21 (relative stereo) [Example 52, Trans-9-chloro-1,2,3,3a,4,5-hexahydrobenzo[e]pyrrolo[3,4-c]azepin-6(10bH)-one]
pKi [3]: 6.07 | pEC50 (5HT2C receptors [1]): 6.80
